Results taken from ChEMBL document CHEMBL2203217, “Prohormone-substrate peptide sequence recognition by peptidylglycine α-amidating monooxygenase and its reflection in increased glycolate inhibitor potency” (Bioorg Med Chem Lett, 2012).

What was measured:
[1] = target: T1, Peptidyl-glycine alpha-amidating monooxygenase (Homo sapiens, UniProt P19021); test: Competitive inhibition of PAM in human DMS53 cells using as(R)-Tyr-(S)-Val-Gly as substrate after 2 hrs by HPLC analysis; assay type: cell-based, DMS-53
T1 sequence (P19021 whole entry): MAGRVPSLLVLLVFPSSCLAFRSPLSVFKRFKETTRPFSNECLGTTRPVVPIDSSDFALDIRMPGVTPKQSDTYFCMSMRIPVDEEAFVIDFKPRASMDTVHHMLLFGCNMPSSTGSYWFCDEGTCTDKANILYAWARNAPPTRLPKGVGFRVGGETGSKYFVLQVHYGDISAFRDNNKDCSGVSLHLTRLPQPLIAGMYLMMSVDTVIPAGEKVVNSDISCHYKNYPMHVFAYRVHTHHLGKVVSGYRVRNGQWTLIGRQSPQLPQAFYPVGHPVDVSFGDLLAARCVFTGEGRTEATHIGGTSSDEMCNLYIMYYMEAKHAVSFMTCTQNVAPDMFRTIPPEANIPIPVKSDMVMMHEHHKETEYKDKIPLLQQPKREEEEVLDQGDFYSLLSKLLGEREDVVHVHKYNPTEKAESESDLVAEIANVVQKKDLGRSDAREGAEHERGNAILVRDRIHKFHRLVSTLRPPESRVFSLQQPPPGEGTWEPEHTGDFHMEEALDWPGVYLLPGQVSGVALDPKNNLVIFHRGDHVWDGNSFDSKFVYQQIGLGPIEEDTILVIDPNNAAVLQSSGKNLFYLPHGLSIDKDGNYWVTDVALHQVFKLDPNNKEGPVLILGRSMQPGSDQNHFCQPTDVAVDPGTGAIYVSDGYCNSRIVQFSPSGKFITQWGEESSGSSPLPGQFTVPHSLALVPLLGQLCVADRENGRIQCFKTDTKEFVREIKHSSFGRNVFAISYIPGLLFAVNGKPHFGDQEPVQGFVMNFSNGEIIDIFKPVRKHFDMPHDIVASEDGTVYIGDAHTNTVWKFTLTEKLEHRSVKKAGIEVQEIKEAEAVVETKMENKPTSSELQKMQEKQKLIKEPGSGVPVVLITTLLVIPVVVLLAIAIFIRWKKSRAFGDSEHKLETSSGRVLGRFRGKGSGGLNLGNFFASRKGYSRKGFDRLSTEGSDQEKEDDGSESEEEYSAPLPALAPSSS

[2] = target: T1, Peptidyl-glycine alpha-amidating monooxygenase; test: Competitive inhibition of secreted PAM in human DMS53 cell culture medium using as(R)-Tyr-(S)-Val-Gly as substrate after 2 hrs by HPLC analysis; parameters: species or system DMS-53

Compound	IC50 [1] [µM]	IC50 [2] [µM]
N[C@@H](Cc1ccccc1)C(=O)OCC(=O)O	1100	1600
C[C@H](NC(=O)CN)C(=O)N1CCC[C@H]1C(=O)OCC(=O)O	980	1100
O=C(O)COC(=O)[C@@H]1CCCN1	600	500

These reach a lower IC50 [1]. Values come first.

IC50 [1] [µM]	IC50 [2] [µM]	Compound
210	1800	CC(=O)NCC(=O)OCC(=O)O
120	200	CC(=O)N[C@@H](CC(C)C)C(=O)NCC(=O)OCC(=O)O
